Data: article PMC8080350, “Rhodanine-3-acetamide derivatives as aldose and aldehyde reductase inhibitors to treat diabetic complications: synthesis, biological evaluation, molecular docking and simulation studies” (BMC Chemistry, 2021)
Read-outs that look alike come from different tables or passages of the source.

Assays:
[1] = target: T1, aldose reductase (ALR2) (Bos taurus, UniProt P16116); test: ALR2 enzyme inhibition assay; assay type: biochemical, calf; conditions: for IC50: substrate D,L-glyceraldehyde, cofactor NADPH, pH 6.2, 340 nm, read-out: ALR2 IC50 ± SEM
T1 construct: The enzyme aldose reductase was extracted from calf lenses; from tissue; host or cells: calf lenses
Procedure: (§1) The newly synthesized of 5-benzylidene rhodanine-3-acetamide derivatives 3(a–g) were evaluated for in vitro enzyme inhibitory potential on aldehyde and aldose reductase enzymes. […] IC50 ± SEM (µM) values were calculated for the compounds showing more than 50% inhibition against both the isozymes, (Table 1).
(§2) All required chemicals used in the enzyme extraction procedure were of high analytical grade. Enzyme inhibitory assay was performed on ELISA microplate reader at 340 nm and 96 well-plates were used for the sample analysis. Micropipettes from Gilson were used for sample loading. Sodium-D-glucoronate and D,L-glyceraldehyde were used as substrates along with a cofactor i.e. NADPH (nicotinamide adenine dinucleotide phosphate) from Sigma Aldrich.
The enzyme aldose reductase was extracted from calf lenses. 200–300 g lenses were added to triple volume of cold water and homogenized for 20 min. The homogenate was then centrifuged at 10,000 rpm for 15 min at 4 °C. The insoluble precipitates were discarded and the supernatant was saturated with 70% ammonium sulfate and after centrifugation at 10,000 rpm at 4 °C for 15 min the supernatant was dialyzed overnight and the protein contents was calculated via Bradford method and the crude aldose reductase was stored at −80 °C [31].
The assay was performed on ELISA (Bio-Tek ELx800™ Instrument, Inc. USA) based spectrophotometric analysis in 96 well plate. The assay mixture was composed of 20 µL buffer (100 mM potassium dihydrogen phosphate pH 6.2), 10 µL test compound (1 mM), 70 µL enzyme and incubated for 10 min at 37 °C followed by addition of 40 µL substrate (D,L-glyceraldehyde 50 mM for ALR2) and 50 µL NADPH (0.5 mM) (nicotinamide adenine dinucleotide phosphate) as a co-factor. After 30 min incubation optical density was measured at 340 nm.
(§3) Results were analyzed by graph pad prism® software to calculate IC50 and percentage inhibition was calculated by the following formula.
(§4) % Inhibition = […].

[2] = target: aldehyde reductase (ALR1) (Ovis aries, UniProt A0ACI6RLT8); test: ALR1 enzyme inhibition assay; assay type: biochemical, lamb; conditions: for selectivity towards ALR1 over ALR2: from IC50 values on ALR1 and ALR2
Procedure: as §1, §2
Aldehyde reductase enzyme was extracted from lamb kidney and the cortical part was separated carefully. The cortex was homogenized in triple volume of extraction buffer (2.0 mM EDTA, 0.25 M sucrose, 10 mM sodium phosphate and 2.5 mM β-mercaptoethanol at pH 7.2). The homogenate was centrifuged at 12,000 rpm at 4 °C for 30 min, the insoluble precipitates were discarded and the supernatant was saturated with 40%, 50% and 75% ammonium sulfate respectively and after each addition the solution was centrifuged at 12,000 rpm at 4 °C for 30 min, each time the pallet was discarded and for the last saturation the supernatant was taken and dialyzed overnight in extraction buffer. Next day the protein content was calculated via Bradford method and the crude aldehyde reductase was stored at − 80 °C [30].
The assay was performed on ELISA (Bio-Tek ELx800TM Instrument, Inc. USA) based spectrophotometric analysis in 96 well plate. The assay mixture was composed of 20 µL buffer (100 mM potassium dihydrogen phosphate pH 6.2), 10 µL test compound (1 mM), 70 µL enzyme and incubated for 10 min at 37 °C followed by addition of 40 µL Glucoronate 50 mM (as a substrate) and 50 µL (0.5 mM) NADPH (nicotinamide adenine dinucleotide phosphate) as a co-factor. After 30 min incubation optical density was measured at 340 nm.
as §3, §4

[3] = substrate sodium D-glucuronate, cofactor NADPH, pH 6.2, 340 nm, read-out: ALR1 IC50 ± SEM

Sequence of aldehyde reductase (ALR1) (A0ACI6RLT8 entry or part of it): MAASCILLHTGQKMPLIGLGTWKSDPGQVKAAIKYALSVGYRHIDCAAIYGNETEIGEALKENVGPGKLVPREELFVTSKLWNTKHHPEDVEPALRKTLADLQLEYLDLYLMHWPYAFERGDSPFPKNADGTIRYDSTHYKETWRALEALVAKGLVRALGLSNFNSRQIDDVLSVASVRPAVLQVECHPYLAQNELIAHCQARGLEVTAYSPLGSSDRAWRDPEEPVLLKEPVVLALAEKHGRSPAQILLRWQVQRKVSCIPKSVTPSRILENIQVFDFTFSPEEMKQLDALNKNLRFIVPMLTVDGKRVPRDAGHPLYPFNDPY

CC1=C(CC(=O)O)c2cc(F)ccc2/C1=C\c1ccc([S+](C)[O-])cc1 (centres unmarked) [Sulindac, reference compound]
IC50 [1]: 0.29 ± 0.08 µM

CCCC(CCC)C(=O)O [Valproic acid, reference compound]
IC50 [2]: 57.4 ± 0.89 µM

COc1ccc(/C=C2\SC(=S)N(CC(=O)N3CCOCC3)C2=O)cc1 [Compound 3f, (Z) 5-(4-methoxybenzylidene)-3-(2-morpholino-2-oxoethyl)-2-thioxothiazolidin-4-one]
selectivity towards ALR2 over ALR1 ([1]; from IC50 values on ALR1 and ALR2): selective towards ALR2 | IC50 [1]: 0.12 ± 0.01 µM | IC50 [2, 3]: 2.18 ± 0.03 µM | melting point: 203 to 205 °C

COc1cc(/C=C2\SC(=S)N(CC(=O)Nc3ccccc3)C2=O)ccc1O [Compound 3a, (Z)-5-(4-hydroxy-3-methoxybenzylidene)-3-(2-anilino-2-oxoethyl)-2-thioxothiazolidin-4-one]
IC50 [1]: 0.25 ± 0.04 µM | IC50 [2, 3]: 5.38 ± 0.07 µM

COc1ccc(/C=C2\SC(=S)N(CC(=O)Nc3ccccc3)C2=O)cc1 [Compound 3e, (Z) 5-(4-methoxybenzylidene)-3-(2-anilino-2-oxoethyl)-2-thioxothiazolidin-4-one]
IC50 [1]: 12.71 ± 0.09 µM | selectivity towards ALR1 over ALR2 [2]: more selective and potent inhibitors of ALR1 | IC50 [2, 3]: 2.87 ± 0.01 µM | melting point: 190 to 192 °C

COc1cc(/C=C2\SC(=S)N(CC(=O)Nc3ccc(C(=O)O)c(O)c3)C2=O)ccc1O [Compound 3c, 2-Hydroxy-4-({[(Z)-5-(4-hydroxy-3-methoxybenzylidene)-4-oxo-2-thioxo-1,3-thiazolidin-3-yl]acetyl}amino)benzoic acid]
IC50 [1]: 6.38 ± 0.01 µM | IC50 [2, 3]: 2.38 ± 0.02 µM

(Z) 5-(4-hydroxy-3-methoxybenzylidene)-3-(2-pyrrolidino-2-oxoethyl)-2-thioxothiazolidin-4-one [Compound 3g]
IC50 [1]: 2.42 ± 0.03 µM | IC50 [2, 3]: 2.22 ± 0.04 µM

COc1cc(/C=C2\SC(=S)N(CC(=O)Nc3ccc(C(=O)O)cc3)C2=O)ccc1O [Compound 3d, 4-({[(Z)-5-(4-hydroxy-3-methoxybenzylidene)-4-oxo-2-thioxo-1,3-thiazolidin-3-yl]acetyl}amino)benzoic acid]
IC50 [1]: 7.36 ± 0.02 µM | selectivity towards ALR1 over ALR2 [2]: more selective and potent inhibitors of ALR1 | IC50 [2, 3]: 3.76 ± 0.09 µM | melting point: 217 to 219 °C

COc1cc(/C=C2\SC(=S)N(CC(=O)N3CCOCC3)C2=O)ccc1O [Compound 3b, (Z)-5-(4-hydroxy-3-methoxybenzylidene)-3-(2-morpholino-2-oxoethyl)-2-thioxothiazolidin-4-one]
IC50 [1]: 19.2 ± 0.08 µM | IC50 [2, 3]: 6.07 ± 0.05 µM | melting point: 211 to 213 °C
